Source: ChEMBL document CHEMBL3739389, “2-Pyridylquinoloneantimalarials with improved antimalarial activity and physicochemical properties” (Medchemcomm, 2015)
Values after ≈ are worked out from the molar mass of the structure shown.

Assays:
[1] = test system: Plasmodium falciparum; assay: Antimalarial activity against drug resistant Plasmodium falciparum W2 infected in human erythrocytes assessed as growth inhibition after 48 hrs by SYBR Green 1 staining-based fluorescence assay; assay type: functional, organism-based; conditions: W2, 48 h
[2] = test system: Plasmodium falciparum; assay: Antimalarial activity against drug resistant Plasmodium falciparum TM90C2B infected in human erythrocytes assessed as growth inhibition after 48 hrs by SYBR Green 1 staining-based fluorescence assay; assay type: functional, organism-based
[3] = Kinetic solubility of the compound in phosphate buffer at pH 1 at 200 uM; assay type: physicochemical; conditions: read-out: Kinetic_solubility
[4] = Kinetic solubility of the compound in fixanal buffer at pH 7.4 at 200 uM; assay type: physicochemical; conditions: read-out: Kinetic_solubility
[5] = Intrinsic clearance in human liver microsomes at 3 uM assessed per mg of protein up to 45 mins in presence of NADPH by LC-MS/MS analysis; assay type: ADME; conditions: read-out: CLH
[6] = test system: Plasmodium falciparum; assay: Antimalarial activity against Plasmodium falciparum 3D7 infected in human erythrocytes assessed as growth inhibition after 48 hrs by SYBR Green 1 staining-based fluorescence assay; assay type: functional, organism-based; conditions: 3D7, 48 h
[7] = Intrinsic clearance in rat hepatocytes at 3 uM assessed per 10^6 cells up to 45 mins […] by LC-MS/MS analysis; assay type: ADME, cell-based, Hepatocyte; conditions: read-out: CLH
[8] = test system: cytochrome b-c1 complex; assay: Inhibition of cytochrome b-c1 complex bovine heart mitochondrial membranes assessed as reduction in cytochrome c reductase activity using decylubiquinol as substrate at 100 uM by UV-visible spectrophotometric analysis; parameters: species or system Bos taurus; conditions: cattle, probe decylubiquinol
[9] = test system: cytochrome b-c1 complex; assay: Inhibition of cytochrome b-c1 complex bovine heart mitochondrial membranes assessed as reduction in cytochrome c reductase activity using decylubiquinol as substrate at 1 uM by UV-visible spectrophotometric analysis; parameters: species or system Bos taurus; conditions: cattle, probe decylubiquinol

Work on `Cc1c(-c2ccc(-c3ccc(OC(F)(F)F)cc3)nc2)[nH]c2ccccc2c1=O` yielded an IC50 [1] of 48 nM, an IC50 [2] of 156 nM and a solubility kinetic at 200 µM [3] of 3.2 µM (≈ 1.27 µg/mL). For the same molecule, the solubility kinetic at 200 µM [4] was less than 1 µM and the microsomal CLint at 3 µM [5] was 20.6 µL/min/mg.

For `COc1cccc2[nH]c(-c3ccc(-c4ccc(OC(F)(F)F)cc4)nc3)c(C)c(=O)c12`, the IC50 [6] was greater than 1000 nM.

With `COc1ccc2[nH]c(-c3ccc(-c4ccc(OC(F)(F)F)cc4)nc3)c(C)c(=O)c2c1` the IC50 [6] was greater than 1000 nM.

With `COc1cccc2c(=O)c(C)c(-c3ccc(-c4ccc(OC(F)(F)F)cc4)nc3)[nH]c12` the IC50 [6] was greater than 1000 nM.

For `Cc1c(-c2ccc(-c3ccc(OC(F)(F)F)cc3)nc2)[nH]c2ccc(O)cc2c1=O`, the IC50 [6] was 326 nM.

`Cc1c(-c2ccc(-c3ccc(OC(F)(F)F)cc3)nc2)[nH]c2c(O)cccc2c1=O` showed an IC50 [6] greater than 1000 nM.

Work on `COc1ccc2c(=O)c(C)c(-c3ccc(-c4ccc(Cl)c(Cl)c4)nc3)[nH]c2c1` yielded an IC50 [6] of 200 nM.

`COc1ccc2c(=O)c(C)c(-c3cncc(-c4ccc(Cl)c(Cl)c4)c3)[nH]c2c1` showed an IC50 [6] of 18 nM, a solubility kinetic at 200 µM [3] of 15 µM (≈ 6.17 µg/mL) and a solubility kinetic at 200 µM [4] of 14 µM (≈ 5.76 µg/mL). For the same molecule, the microsomal CLint at 3 µM [5] was 14 µL/min/mg, the hepatocyte CLint at 3 µM [7] was 4.9 µL/min/1e6 cells and the inhibition at 100 µM [8] was 13%. It also gave an inhibition at 1 µM [9] of 20%.

Work on `Cc1c(-c2cncc(-c3ccc(OC(F)(F)F)cc3)c2)[nH]c2ccccc2c1=O` yielded an IC50 [6] of 41 nM, a solubility kinetic at 200 µM [3] of 140 µM (≈ 55.5 µg/mL) and a solubility kinetic at 200 µM [4] of 3.6 µM (≈ 1.43 µg/mL). For the same molecule, the microsomal CLint at 3 µM [5] was 12.5 µL/min/mg, the hepatocyte CLint at 3 µM [7] was 1.8 µL/min/1e6 cells and the inhibition at 100 µM [8] was 20%. For the same molecule, the inhibition at 1 µM [9] was 25%.

`Cc1c(-c2cccc(-c3ccc(OC(F)(F)F)cc3)n2)[nH]c2ccccc2c1=O` gave an IC50 [6] of 390 nM.

`COc1ccc2c(=O)c(C)c(-c3ccc(-c4ccc(OC(F)(F)F)cc4)nc3)[nH]c2c1` gave an IC50 [6] of 14 nM, a solubility kinetic at 200 µM [3] of 2.6 µM (≈ 1.11 µg/mL) and a solubility kinetic at 200 µM [4] of less than 1 µM. It also gave an inhibition at 100 µM [8] of 55% and an inhibition at 1 µM [9] of 98%.

`COc1ccc2c(=O)c(C)c(-c3ccnc(-c4ccc(OC(F)(F)F)cc4)c3)[nH]c2c1` gave an IC50 [6] of 12 nM, an IC50 [1] of 4.2 nM and an IC50 [2] of 7 nM. For the same molecule, the solubility kinetic at 200 µM [3] was 120 µM (≈ 51.2 µg/mL), the solubility kinetic at 200 µM [4] was less than 1 µM and the inhibition at 100 µM [8] was 63%. The inhibition at 1 µM [9] was 85%.

With `COc1ccc2c(=O)c(C)c(-c3cc(-c4ccc(OC(F)(F)F)cc4)ccn3)[nH]c2c1` the IC50 [6] was 150 nM.

`COc1ccc2c(=O)c(C)c(-c3ccc(-c4ccc(OC(F)(F)F)cc4)cn3)[nH]c2c1` gave an IC50 [6] greater than 1000 nM.

For `Cc1c(-c2ccc(-c3ccc(OC(F)(F)F)cc3)cn2)[nH]c2ccccc2c1=O`, the IC50 [6] was greater than 1000 nM.

Molecule `COc1ccc2c(=O)c(C)c(-c3cccc(-c4ccc(OC(F)(F)F)cc4)n3)[nH]c2c1` has an IC50 [6] of 149 nM.

In the case of `O=c1c2c([nH]c3ccccc13)CN(Cc1ccc(OC(F)(F)F)cc1)C2`, the IC50 [6] is reported as 200 nM.

With `O=c1c2c([nH]c3ccccc13)CN(Cc1ccc(Cl)c(Cl)c1)C2` the IC50 [6] was 70 nM.

With `Cc1c(-c2cncc(-c3ccc(Cl)c(Cl)c3)c2)[nH]c2ccccc2c1=O` the IC50 [6] was 40 nM, the microsomal CLint at 3 µM [5] was 5.6 µL/min/mg and the hepatocyte CLint at 3 µM [7] was 9.9 µL/min/1e6 cells.

Work on `COc1ccc2c(=O)c(C)c(-c3cncc(-c4ccc(OC(F)(F)F)cc4)c3)[nH]c2c1` yielded an IC50 [6] of 12 nM, an IC50 [1] of 4 nM and an IC50 [2] of 7.2 nM. The solubility kinetic at 200 µM [3] was 7.8 µM (≈ 3.33 µg/mL), the solubility kinetic at 200 µM [4] was less than 1 µM and the microsomal CLint at 3 µM [5] was 25.9 µL/min/mg. It also gave a hepatocyte CLint at 3 µM [7] of 1.2 µL/min/1e6 cells, an inhibition at 100 µM [8] of 19% and an inhibition at 1 µM [9] of 81%.

Work on `Cc1c(-c2ccnc(-c3ccc(OC(F)(F)F)cc3)c2)[nH]c2ccccc2c1=O` yielded an IC50 [6] of 21 nM, a solubility kinetic at 200 µM [3] of 79 µM (≈ 31.3 µg/mL) and a solubility kinetic at 200 µM [4] of 2.1 µM (≈ 0.832 µg/mL). It also gave a microsomal CLint at 3 µM [5] of 7.7 µL/min/mg, a hepatocyte CLint at 3 µM [7] of 2.5 µL/min/1e6 cells and an inhibition at 100 µM [8] of 52%. For the same molecule, the inhibition at 1 µM [9] was 81%.

Molecule `O=C1C(O)=C([C@H]2CC[C@H](c3ccc(Cl)cc3)CC2)C(=O)c2ccccc21` [ATOVAQUONE] has an IC50 [1] of 0.3 nM and an IC50 [2] of 9910 nM.
